Biological target: T1, human RORγ-LBD (Homo sapiens, UniProt P51449)
T1 construct: made in house; host or cells: E. coli (BL-21)
T1 sequence (P51449 262-518): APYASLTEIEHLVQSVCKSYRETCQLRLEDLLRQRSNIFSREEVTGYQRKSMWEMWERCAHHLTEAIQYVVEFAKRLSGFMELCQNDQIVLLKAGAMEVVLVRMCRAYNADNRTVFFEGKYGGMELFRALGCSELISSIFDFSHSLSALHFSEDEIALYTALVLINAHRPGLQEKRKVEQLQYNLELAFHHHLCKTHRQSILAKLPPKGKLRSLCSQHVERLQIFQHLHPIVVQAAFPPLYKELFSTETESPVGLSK
Assay: ROR gamma coactivator peptide recruitment Alphascreen assay (RORγ-LBD binding to GRIP1 coactivator peptide)
Format: biochemical
Settings: 5 nM human RORγ-LBD, 30 nM 7-β-hydroxycholesterol, 50 nM biotinylated GRIP1 coactivator peptide, overnight incubation at room temperature; read-out: result (pIC50, RORγ coactivator peptide recruitment Alphascreen assay) (converted)
Summary of the method: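 Alphascreen proximity read-out after overnight room-temperature incubation, yielding pIC50 from 1-in-2 compound series (2.5% DMSO final). Mixture: 50 nM biotin-GRIP1 peptide, 30 nM 7-β-hydroxycholesterol agonist, 5 nM recombinant 6×His:Flag human RORγ-LBD (aa 262-518), 50 mM HEPES pH 7.4.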

IC50 [nM]	SMILES
3.89	C[C@@H]1C[C@H](n2ncc(C(=O)N(CC(=O)c3c(Cl)cncc3Cl)CC(C)(C)C(F)(F)F)c2C(F)(F)F)CC[C@H]1C(=O)O [Example 878, (1R,2R,4R)-4-(4-((2-(3,5-dichloro-4-pyridinyl)-2-oxoethyl)(3,3,3-trifluoro-2,2-dimethylpropyl)carbamoyl)-5-(trifluoromethyl)-1H-pyrazol-1-yl)-2-methylcyclohexanecarboxylic acid]
646	C[C@@H]1C[C@@](C)(C(=O)O)CC[C@@H]1n1ncc(C(=O)N(CC(=O)c2c(Cl)cncc2Cl)CC(C)(C)C)c1C(F)(F)F [Example 882, (1S,3R,4S)-4-(4-((2-(3,5-dichloro-4-pyridinyl)-2-oxoethyl)(2,2-dimethylpropyl)carbamoyl)-5-(trifluoromethyl)-1H-pyrazol-1-yl)-1,3-dimethylcyclohexanecarboxylic acid]
708	C[C@H]1C[C@](C)(C(=O)O)CC[C@H]1n1ncc(C(=O)N(CC(=O)c2c(Cl)cncc2Cl)CC(C)(C)C)c1C(F)(F)F [Example 883, (1R,3S,4R)-4-(4-((2-(3,5-dichloro-4-pyridinyl)-2-oxoethyl)(2,2-dimethylpropyl)carbamoyl)-5-(trifluoromethyl)-1H-pyrazol-1-yl)-1,3-dimethylcyclohexanecarboxylic acid]

Further lines, the compound ahead of its results:

SMILES	IC50 [nM]
CC(C)(C)CN(CC(=O)c1c(Cl)cncc1Cl)C(=O)c1cnn([C@H]2CC[C@@]3(C(=O)O)CCC[C@H]3C2)c1C(F)(F)F [Example 876, (3aS,6S,7aS )-6-(4-((2-(3,5-dichloropyridin-4-yl)-2-oxoethyl)(neopentyl)carbamoyl)-5-(trifluoromethyl)-1H-pyrazol-1-yl)octahydro-1H-indene-3a-carboxylic acid]	6.17
CC(C)(C)CN(CC(=O)c1c(Cl)cncc1Cl)C(=O)c1cnn([C@@H]2CC[C@]3(C(=O)O)CCC[C@@H]3C2)c1C(F)(F)F [Example 877, (3aR,6R,7aR)-6-(4-((2-(3,5-dichloropyridin-4-yl)-2-oxoethyl)(neopentyl)carbamoyl)-5-(trifluoromethyl)-1H-pyrazol-1-yl)octahydro-1H-indene-3a-carboxylic acid]	6.17
C[C@@H]1C[C@H](n2ncc(C(=O)N(CC(=O)c3c(Cl)cncc3Cl)C[C@]34CC[C@H](CC3)O4)c2C(F)(F)F)CC[C@H]1C(=O)O [Example 880, (1R,2R,4R)-4-(4-((2-(3,5-dichloro-4-pyridinyl)-2-oxoethyl)((1s,4s)-7-oxabicyclo[2.2.1]hept-1-ylmethyl)carbamoyl)-5-(trifluoromethyl)-1H-pyrazol-1-yl)-2-methylcyclohexanecarboxylic acid]	16.2
C[C@H]1C[C@@H](n2ncc(C(=O)N(CC(=O)c3c(Cl)cncc3Cl)C[C@]34CC[C@H](CC3)O4)c2C(F)(F)F)CC[C@@H]1C(=O)O [Example 881, (1S,2S,4S)-4-(4-((2-(3,5-dichloro-4-pyridinyl)-2-oxoethyl)((1s,4s)-7-oxabicyclo[2.2.1]hept-1-ylmethyl)carbamoyl)-5-(trifluoromethyl)-1H-pyrazol-1-yl)-2-methylcyclohexanecarboxylic acid]	24.5
CC(C)(CN(CC(=O)c1c(Cl)cncc1Cl)C(=O)c1cnn([C@H]2CC[C@H](CC(=O)O)CC2)c1C(F)(F)F)C(F)(F)F [Example 884, (trans-4-(4-((2-(3,5-dichloro-4-pyridinyl)-2-oxoethyl)(3,3,3-trifluoro-2,2-dimethylpropyl)carbamoyl)-5-(trifluoromethyl)-1H-pyrazol-1-yl)cyclohexyl)acetic acid]	1.82
CC(C)(C)CN(CCc1c(Cl)c[nH]c(=O)c1Cl)C(=O)c1cnn([C@H]2CC[C@](C)(C(=O)O)CC2)c1C(F)(F)F [Example 885, trans-4-(4-((2-(3,5-dichloro-2-oxo-1,2-dihydro-4-pyridinyl)ethyl)(2,2-dimethylpropyl)carbamoyl)-5-(trifluoromethyl)-1H-pyrazol-1-yl)-1-methylcyclohexanecarboxylic acid]	741

— US9365522B2, “Pyrazole amide derivative” (AMGEN INC., priority 2015, dated 2016)
